Laboratory results as given in patent US9828412B2, “Short peptide targeting EPS8 binding with EGFR and use thereof” (SOUTHERN MEDICAL UNIVERSITY, priority 2014, dated 2017).
Read-outs that look alike come from different tables or passages of the source. No end group written: not given here.

Columns and labels:
[1] = system: EPS8 overexpression tumor cell line KG1α (human acute myeloid leukemia cell line)
Method: EPS8 overexpression tumor cell line KG1α (human acute myeloid leukemia cell line, purchased from the American Type Culture Collection, ATCC) were selected as target cells, and seeded in 96-well plates at 10,000 cells/well and 100 μL/well. The medium culture was Roswell Park Memorial Institute (RPMI)-1640 containing 10% fetal bovine serum (FBS). […] Then OD values at the wavelength of 490 nm were detected by MTS assay, and KG1α cell viability was calculated.
KG1α cell viability=[(ODexperimental-ODblank control)]/[(ODnegative control-ODblank control)]×100%.

[2] = system: EPS8 overexpression tumor cell line MCF-7 (human breast cancer cell line)
Method: EPS8 overexpression tumor cell line MCF-7 (human breast cancer cell line, purchased from ATCC) were selected as target cells, and seeded in 96-well plates at 10,000 cells/well and 100 μL/well. The medium culture was Dulbecco's Modified Eagle's Medium (DMEM) containing 10% FBS. 8 hours later, short peptide P01 was added at different final concentration of 0, 100, 300 and 500 μg/mL. MCF-7 cells were incubated with short peptide P01 for 24 hours, 48 hours and 72 hours. Then OD values at wavelength of 490 nm were detected by MTS assay, and MCF-7 cell viability was calculated.
MCF-7 cell viability=[(ODexperimental-ODblank control)]/[(ODnegative control-ODblank control)]×100%.

Substance: RKKNKPPPPKK-NH2 [P01, N′-Arg-Lys-Lys-Asn-Lys-Pro-Pro-Pro-Pro-Lys-Lys-NH2-C′]
- IC50 (KG1α cell viability) ([1]; 24 h): 888.5 µg/mL
- IC50 (KG1α cell viability) ([1]; 48 h): 413.9 µg/mL
- IC50 (KG1α cell viability) ([1]; 72 h): 335.6 µg/mL
- IC50 (MCF-7 cell viability) ([2]; 24 h): 594.2 µg/mL
- IC50 (MCF-7 cell viability) ([2]; 48 h): 374.9 µg/mL
- IC50 (MCF-7 cell viability) ([2]; 72 h): 304.7 µg/mL
